# Key:
# Type in all cases: cell-based, Influenza A virus (A/Puerto Rico/8/1934(H1N1))
# [1] = (§1) Inhibition of Influenza A virus (A/PR 8/34 (H1N1)) hemagglutinin HA1 chain 1324T mutant transfected in human HeLa cells assessed as reduction in low pH-indued polykaryon formation preincubated for 15 mins followed by pH 5.2 buffer addition and measured after 5 mins by giemsa staining based microscopic analysis
# [2] = as §1, with “S326V” for “1324T”
# [3] = as §1, with “HA2” for “HA1”, “L99F” for “1324T”
compound,measurement,setting,value
COC(=O)C[C@H](NC(=O)OC(C)(C)C)C(=O)N(Cc1ccc(F)cc1)C1(C(=O)NCc2ccccc2)CCN(Cc2ccccc2)CC1,IC50,[1],3.2 µM
same,IC50,[2],> 100 µM
same,IC50,[3],> 100 µM

# Reference: ChEMBL document CHEMBL4680243, “N-benzyl 4,4-disubstituted piperidines as a potent class of influenza H1N1 virus inhibitors showing a novel mechanism of hemagglutinin fusion peptide interaction” (Eur J Med Chem, 2020)
